Reference: ChEMBL document CHEMBL1150014, “DISCOVERY OF A NOVEL CLASS OF BK CHANNEL OPENERS: ENANTIOSPECIFIC SYNTHESIS AND BK CHANNEL OPENING ACTIVITY OF 3-(5-CHLORO-2-HYDROXYPHENYL)-1,3-DIHYDRO-3-HYDROXY-6-(TRIFLUOROMETHYL)-2H-INDOL-2-ONE” (Bioorg Med Chem Lett, 1997)

The compounds below were run against Calcium-activated potassium channel subunit alpha-1 (Mus musculus) (UniProt Q08460) (assay: Effect on outward K+ current using two-electrode voltage clamp recording from Xenopus laevis oocyte expressing cloned mSlo at 30 uM).
Assay type: functional

Calcium-activated potassium channel subunit alpha-1 (Mus musculus), sequence (Q08460 whole entry): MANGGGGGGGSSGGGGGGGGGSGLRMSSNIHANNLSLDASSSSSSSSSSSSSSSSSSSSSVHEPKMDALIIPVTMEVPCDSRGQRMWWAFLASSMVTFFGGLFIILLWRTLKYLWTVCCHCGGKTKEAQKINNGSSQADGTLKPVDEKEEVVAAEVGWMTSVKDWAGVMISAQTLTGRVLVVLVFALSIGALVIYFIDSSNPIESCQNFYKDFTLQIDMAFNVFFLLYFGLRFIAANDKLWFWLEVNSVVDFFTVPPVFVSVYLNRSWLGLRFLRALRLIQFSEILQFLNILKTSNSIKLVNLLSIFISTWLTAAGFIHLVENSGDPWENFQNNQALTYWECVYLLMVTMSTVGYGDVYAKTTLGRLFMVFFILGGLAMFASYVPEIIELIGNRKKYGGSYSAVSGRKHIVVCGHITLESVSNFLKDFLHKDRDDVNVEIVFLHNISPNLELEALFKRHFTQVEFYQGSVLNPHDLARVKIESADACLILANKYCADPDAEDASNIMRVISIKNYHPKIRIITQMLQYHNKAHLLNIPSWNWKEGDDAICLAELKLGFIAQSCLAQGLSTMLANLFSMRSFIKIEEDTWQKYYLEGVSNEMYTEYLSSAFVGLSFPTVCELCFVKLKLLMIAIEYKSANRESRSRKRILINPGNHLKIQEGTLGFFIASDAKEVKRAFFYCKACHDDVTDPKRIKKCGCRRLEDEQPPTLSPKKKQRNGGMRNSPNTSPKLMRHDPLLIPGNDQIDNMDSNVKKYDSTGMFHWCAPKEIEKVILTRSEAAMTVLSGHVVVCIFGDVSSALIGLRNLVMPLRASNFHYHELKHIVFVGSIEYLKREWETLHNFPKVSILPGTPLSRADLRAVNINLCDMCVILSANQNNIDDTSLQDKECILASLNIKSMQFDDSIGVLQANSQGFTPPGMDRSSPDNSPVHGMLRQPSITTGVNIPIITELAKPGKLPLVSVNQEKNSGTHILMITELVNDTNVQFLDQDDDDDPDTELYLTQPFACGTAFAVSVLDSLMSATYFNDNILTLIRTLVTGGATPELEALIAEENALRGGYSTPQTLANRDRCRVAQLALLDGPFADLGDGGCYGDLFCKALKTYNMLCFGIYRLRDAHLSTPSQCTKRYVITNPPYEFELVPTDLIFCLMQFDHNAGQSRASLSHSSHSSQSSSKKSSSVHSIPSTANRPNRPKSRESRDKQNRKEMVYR

Row | Control [%] | SMILES
1 | 201 | O=C1Nc2cc(C(F)(F)F)ccc2C1(O)c1cc(Cl)ccc1O (racemic)
2 | 148 | O=c1[nH]c2cc(C(F)(F)F)ccc2n1-c1cc(Cl)ccc1O

What follows are compounds tested against Calcium-activated potassium channel subunit alpha-1 (Mus musculus) (UniProt Q08460) (assay: Effect on outward K+ current using two-electrode voltage clamp recording from Xenopus laevis oocyte expressing cloned mSlo at 20 uM).
Assay type: functional

Row | SMILES | Control [%]
3 | O=C1Nc2ccccc2C1(O)c1cc(Cl)ccc1O (racemic) | 95.3
4 | O=C1Nc2cc(C(F)(F)F)ccc2C1(O)c1ccccc1O (racemic) | 90.4
5 | O=c1[nH]c2cc(C(F)(F)F)ccc2n1-c1cc(Cl)ccc1O | 132

The next lines start with the values.

Row | Control [%] | SMILES
6 | 131 | O=C1Nc2cc(C(F)(F)F)ccc2C1(O)c1cc(Cl)ccc1O (racemic)
7 | 124 | O=C1Nc2cc(C(F)(F)F)ccc2[C@@]1(O)c1cc(Cl)ccc1O (stereo in doubt; (+)-4e)
8 | 141 | O=C1Nc2cc(C(F)(F)F)ccc2[C@@]1(O)c1cc(Cl)ccc1O (stereo in doubt; (-)-4e)

What follows are compounds tested against Calcium-activated potassium channel subunit alpha-1 (Homo sapiens) (UniProt Q12791) (assay: Effect on outward K+ current using two-electrode voltage clamp recording from Xenopus laevis oocyte expressing cloned hSlo at 20 uM).
Assay type: functional

Calcium-activated potassium channel subunit alpha-1 (Homo sapiens), sequence (Q12791 whole entry): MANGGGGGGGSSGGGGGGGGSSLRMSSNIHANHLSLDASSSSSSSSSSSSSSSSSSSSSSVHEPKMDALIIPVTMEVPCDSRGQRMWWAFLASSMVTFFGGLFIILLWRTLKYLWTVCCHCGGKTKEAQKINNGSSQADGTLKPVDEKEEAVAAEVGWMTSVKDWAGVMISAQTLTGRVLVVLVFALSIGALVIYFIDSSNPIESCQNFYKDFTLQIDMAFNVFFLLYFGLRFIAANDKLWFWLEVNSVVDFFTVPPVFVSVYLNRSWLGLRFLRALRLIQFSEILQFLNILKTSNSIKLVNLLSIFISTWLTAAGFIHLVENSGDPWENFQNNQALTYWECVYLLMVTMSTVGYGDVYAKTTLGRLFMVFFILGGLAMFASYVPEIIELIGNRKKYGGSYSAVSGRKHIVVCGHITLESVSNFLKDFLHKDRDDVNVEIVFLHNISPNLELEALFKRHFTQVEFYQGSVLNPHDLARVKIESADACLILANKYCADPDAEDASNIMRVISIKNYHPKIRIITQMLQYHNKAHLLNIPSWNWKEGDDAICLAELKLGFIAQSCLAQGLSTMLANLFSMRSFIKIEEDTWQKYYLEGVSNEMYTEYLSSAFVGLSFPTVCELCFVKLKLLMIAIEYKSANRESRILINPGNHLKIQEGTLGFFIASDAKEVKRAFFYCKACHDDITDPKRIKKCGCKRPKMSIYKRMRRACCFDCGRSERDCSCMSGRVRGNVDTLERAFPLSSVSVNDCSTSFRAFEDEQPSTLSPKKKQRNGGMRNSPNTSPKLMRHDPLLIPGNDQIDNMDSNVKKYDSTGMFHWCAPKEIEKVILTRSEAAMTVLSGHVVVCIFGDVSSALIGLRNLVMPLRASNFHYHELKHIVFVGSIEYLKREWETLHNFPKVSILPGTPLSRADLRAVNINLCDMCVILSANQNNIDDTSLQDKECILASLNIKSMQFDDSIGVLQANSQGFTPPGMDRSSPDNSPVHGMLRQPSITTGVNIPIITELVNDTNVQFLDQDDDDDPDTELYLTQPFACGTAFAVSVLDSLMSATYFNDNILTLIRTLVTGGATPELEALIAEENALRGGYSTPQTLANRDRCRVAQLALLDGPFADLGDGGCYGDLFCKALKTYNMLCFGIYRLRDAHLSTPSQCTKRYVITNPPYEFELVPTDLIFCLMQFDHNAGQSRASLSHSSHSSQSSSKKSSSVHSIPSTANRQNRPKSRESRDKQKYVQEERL

Row | Control [%] | SMILES
9 | 117 | COc1ccc(Cl)cc1[C@]1(O)C(=O)Nc2cc(C(F)(F)F)ccc21 (stereo in doubt; (+)-4c)
10 | 96.7 | O=C1Nc2cc(C(F)(F)F)ccc2C1(O)c1cccc(Cl)c1 (racemic)
11 | 120 | COc1ccc(Cl)cc1C1(O)C(=O)Nc2cc(C(F)(F)F)ccc21 (racemic)
12 | 116 | COc1ccc(Cl)cc1[C@]1(O)C(=O)Nc2cc(C(F)(F)F)ccc21 (stereo in doubt; (-)-4c)
